In ChEMBL document CHEMBL5360532, “Current scenario of quinolone hybrids with potential antibacterial activity against ESKAPE pathogens” (Eur J Med Chem, 2023):
In brackets after ≈: the same amount, converted by molar mass.

Key:
Escherichia coli [1] = assay: Antibacterial activity against Escherichia coli ATCC 25922 assessed as bacterial growth inhibition measured after 24 hrs by agar disc diffusion assay; format: functional
Staphylococcus aureus [2] = assay: Antibacterial activity against Staphylococcus aureus ATCC 29213 assessed as bacterial growth inhibition measured after 24 hrs by agar disc diffusion assay; format: functional
Pseudomonas aeruginosa [3] = assay: Antibacterial activity against Pseudomonas aeruginosa ATCC 27853 assessed as bacterial growth inhibition measured after 24 hrs by agar disc diffusion assay; format: functional
Escherichia coli [4] = assay: Antibacterial activity against Escherichia coli ATCC 35218 assessed as bacterial growth inhibition measured after 18 to 24 hrs by two fold microdilution assay; format: functional; conditions: ATCC35218, time 18-24 hrs
Staphylococcus aureus [5] = assay: Antibacterial activity against Staphylococcus aureus ATCC 25923 assessed as bacterial growth inhibition measured after 18 to 24 hrs by two fold microdilution assay; format: functional; conditions: time 18-24 hrs
Klebsiella pneumoniae [6] = assay: Antibacterial activity against Klebsiella pneumoniae assessed as bacterial growth inhibition measured after 18 to 24 hrs by two fold microdilution assay; format: functional; conditions: time 18-24 hrs
Escherichia coli [7] = assay: Antibacterial activity against Escherichia coli clinical isolate assessed as zone of inhibition at 50 mg/ml by agar diffusion assay; format: functional; conditions: read-out: IZ
Staphylococcus aureus [8] = assay: Antibacterial activity against Staphylococcus aureus clinical isolate assessed as zone of inhibition at 50 mg/ml by agar diffusion assay; format: functional; conditions: read-out: IZ
Escherichia coli [9] = assay: Antibacterial activity against Escherichia coli ATCC 25922 assessed as zone of inhibition at 50 mg/ml by agar diffusion assay; format: functional; conditions: read-out: IZ
Staphylococcus aureus [10] = assay: Antibacterial activity against Staphylococcus aureus ATCC 25923 assessed as zone of inhibition at 50 mg/ml by agar diffusion assay; format: functional; conditions: read-out: IZ
Staphylococcus aureus [11] = assay: Antibacterial activity against Staphylococcus aureus assessed as bacterial growth inhibition by agar cup diffusion assay; format: functional
[12] = test system: Mycobacterium tuberculosis; assay: Antimycobacterial activity against pan sensitive Mycobacterium tuberculosis R2012-123 assessed as bacterial growth inhibition by agar cup diffusion assay; format: functional
Pseudomonas aeruginosa [13] = assay: Antibacterial activity against Pseudomonas aeruginosa assessed as bacterial growth inhibition by agar cup diffusion assay; format: functional
[14] = test system: Mycobacterium tuberculosis; assay: Antimycobacterial activity against Mycobacterium tuberculosis H37Rv assessed as bacterial growth inhibition by agar cup diffusion assay; format: functional
Klebsiella pneumoniae [15] = assay: Antibacterial activity against Klebsiella pneumoniae assessed as bacterial growth inhibition by agar cup diffusion assay; format: functional
Escherichia coli [16] = assay: Antibacterial activity against Escherichia coli assessed as bacterial growth inhibition by agar cup diffusion assay; format: functional
Escherichia coli [17] = assay: Potency index, ratio of ciprofloxacin MIC to test compound MIC for antimicrobial activity against Escherichia coli assessed as bacterial growth inhibition by agar cup diffusion assay; format: functional
Staphylococcus aureus [18] = assay: Potency index, ratio of ciprofloxacin MIC to test compound MIC for antimicrobial activity against Staphylococcus aureus assessed as bacterial growth inhibition by agar cup diffusion assay; format: functional
Staphylococcus aureus [19] = assay: Potency index, ratio of ciprofloxacin MIC to test compound MIC for antibacterial activity against Staphylococcus aureus ATCC 25923 assessed as bacterial growth inhibition measured after 18 to 24 hrs by agar dilution assay; format: functional; conditions: time 18-24 hrs
Staphylococcus aureus [20] = assay: Antibacterial activity against Staphylococcus aureus ATCC 25923 assessed as bacterial growth inhibition measured after 18 to 24 hrs by agar dilution assay; format: functional; conditions: time 18-24 hrs
Klebsiella pneumoniae [21] = assay: Antibacterial activity against Klebsiella pneumoniae AUMC B-77 assessed as bacterial growth inhibition by agar cup diffusion method; format: functional
Aspergillus fumigatus = assay: Antifungal activity against Aspergillus fumigatus assessed as fungal growth inhibition by agar cup diffusion assay; format: functional
Aspergillus niger [22] = assay: Antifungal activity against Aspergillus niger assessed as fungal growth inhibition by agar cup diffusion assay; format: functional
Escherichia coli [23] = assay: Antibacterial activity against Escherichia coli assessed as bacterial growth inhibition by broth microdilution assay; format: functional
Staphylococcus aureus [24] = assay: Potency index, ratio of norfloxacin MIC to test compound MIC for antimicrobial activity against Staphylococcus aureus assessed as bacterial growth inhibition measured after 18 to 24 hrs inhibition by broth microdilution assay; format: functional; conditions: time 18-24 hrs
Staphylococcus aureus [25] = assay: Antibacterial activity against Staphylococcus aureus assessed as bacterial growth inhibition by broth microdilution assay; format: functional
Candida albicans = assay: Antifungal activity against Candida albicans assessed as fungal growth inhibition by agar well diffusion assay; format: functional
Aspergillus niger [26] = assay: Antifungal activity against Aspergillus niger assessed as fungal growth inhibition by agar well diffusion assay; format: functional
[27] = Anticancer activity against EAC cell assessed as cell growth inhibition measured after 24 to 72 hrs by MTT assay; format: functional, cell-based; conditions: Ehrlich
HT-29 = assay: Anticancer activity against human HT-29 cell assessed as cell growth inhibition measured after 24 to 72 hrs by MTT assay; format: functional, cell-based
WRL68 = assay: Anticancer activity against human WRL68 cell assessed as cell growth inhibition measured after 24 to 72 hrs by MTT assay; format: functional, cell-based
Klebsiella pneumoniae [28] = assay: Antibacterial activity against Klebsiella pneumoniae assessed as bacterial growth inhibition by agar streak dilution assay; format: functional
Staphylococcus aureus [29] = assay: Antibacterial activity against Staphylococcus aureus assessed as bacterial growth inhibition by agar streak dilution assay; format: functional
Escherichia coli [30] = assay: Antibacterial activity against Escherichia coli assessed as bacterial growth inhibition by agar streak dilution assay; format: functional
Streptococcus agalactiae = assay: Antibacterial activity against Streptococcus agalactiae assessed as bacterial growth inhibition measured after 16 to 24 hrs by broth microdilution assay; format: functional; conditions: time 16-24 hrs
Enterococcus = assay: Antibacterial activity against vancomycin resistant Enterococcus assessed as bacterial growth inhibition measured after 16 to 24 hrs by broth microdilution assay; format: functional; conditions: time 16-24 hrs
Staphylococcus aureus [31] = assay: Antibacterial activity against methicillin resistant Staphylococcus aureus assessed as bacterial growth inhibition measured after 16 to 24 hrs by broth microdilution assay; format: functional; conditions: time 16-24 hrs
Staphylococcus aureus [32] = assay: Antibacterial activity against Staphylococcus aureus assessed as bacterial growth inhibition measured after 16 to 24 hrs by broth microdilution assay; format: functional; conditions: time 16-24 hrs
Haemophilus influenzae = assay: Antibacterial activity against Haemophilus influenzae assessed as bacterial growth inhibition measured after 16 to 24 hrs by broth microdilution assay; format: functional; conditions: time 16-24 hrs
Staphylococcus aureus [33] = assay: Antibacterial activity against methicillin resistant Staphylococcus aureus assessed as bacterial growth inhibition by agar dilution assay; format: functional
Pseudomonas aeruginosa [34] = assay: Antibacterial activity against Pseudomonas aeruginosa assessed as bacterial growth inhibition by broth microdilution assay; format: functional
Escherichia coli [35] = assay: Antibacterial activity against Escherichia coli ATCC 8739 assessed as bacterial growth inhibition by two fold microdilution assay; format: functional
Pseudomonas aeruginosa [36] = assay: Antibacterial activity against Pseudomonas aeruginosa ATCC 27853 assessed as bacterial growth inhibition by agar dilution assay; format: functional
Staphylococcus aureus [37] = assay: Antibacterial activity against Staphylococcus aureus assessed as bacterial growth inhibition by agar dilution assay; format: functional
Klebsiella pneumoniae [38] = assay: Antibacterial activity against Klebsiella pneumoniae assessed as bacterial growth inhibition by two fold microdilution assay; format: functional
Acinetobacter baumannii = assay: Antibacterial activity against Acinetobacter baumannii assessed as bacterial growth inhibition by agar dilution assay; format: functional
Staphylococcus aureus [39] = assay: Antibacterial activity against Staphylococcus aureus ATCC 6538P assessed as bacterial growth inhibition by two fold microdilution assay; format: functional
MDA-MB-231 = assay: Growth inhibition of human MDA-MB-231 cells measured after 48 hrs by SRB assay; format: functional
SiHa = assay: Growth inhibition of human SiHa cells measured after 48 hrs by SRB assay; format: functional

COC(=O)[C@H](C)NC(=O)c1cc(=O)n(Cc2cn([C@@H](NC(=O)c3ccccc3)C(=O)OC)nn2)c2ccccc12
MIC (Escherichia coli [1]): 19 µg/mL (≈ 34.8 µM) | MIC (Staphylococcus aureus [2]): 19 µg/mL (≈ 34.8 µM) | MIC (Pseudomonas aeruginosa [3]): 19 µg/mL (≈ 34.8 µM)

CCn1cc(C(=O)O)c(=O)c2cc(F)c(N3CCN(Cn4nc(CN5CCN(c6ccc(F)cc6)CC5)n(-c5ccccc5)c4=O)CC3)cc21
MIC (Escherichia coli [4]): < 0.24 µg/mL | MIC (Staphylococcus aureus [5]): < 0.24 µg/mL | MIC (Klebsiella pneumoniae [6]): < 0.24 µg/mL

COC(=O)[C@H](C)NC(=O)c1cc(=O)n(Cc2cn(C3O[C@H]4OC(C)(C)O[C@H]4[C@@H]4OC(C)(C)OC[C@@H]34)nn2)c2ccccc12 (some centres undefined)
MIC (Escherichia coli [1]): 9.75 µg/mL (≈ 16.3 µM) | MIC (Staphylococcus aureus [2]): 9.75 µg/mL (≈ 16.3 µM) | MIC (Pseudomonas aeruginosa [3]): 9.75 µg/mL (≈ 16.3 µM)

COC(=O)c1cn(C2CC2)c2cc(N3CCN(C(=O)c4nnn(-c5ccc(OC)cc5)c4N)CC3)c(F)cc2c1=O
zone of inhibition at 50000 µg/mL (Escherichia coli [7]): 26.3 mm | zone of inhibition at 50000 µg/mL (Staphylococcus aureus [8]): 26.3 mm | zone of inhibition at 50000 µg/mL (Escherichia coli [9]): 26.3 mm | zone of inhibition at 50000 µg/mL (Staphylococcus aureus [10]): 26.3 mm

O=C(CN1CCN(c2cc3c(cc2F)c(=O)c(C(=O)O)cn3C2CC2)CC1)Nc1nnc(-c2ccccc2)s1
MIC (Staphylococcus aureus [11]): 1.12 µg/mL (≈ 2.04 µM) | MIC [12]: 8 µg/mL (≈ 14.6 µM) | MIC (Pseudomonas aeruginosa [13]): 7.4 µg/mL (≈ 13.5 µM) | MIC [14]: 8 µg/mL (≈ 14.6 µM) | MIC (Klebsiella pneumoniae [15]): 1.12 µg/mL (≈ 2.04 µM) | MIC (Escherichia coli [16]): 1.12 µg/mL (≈ 2.04 µM) | Ratio (Escherichia coli [17]): 4.6 | Ratio (Staphylococcus aureus [18]): 4.6

CCOC(=O)c1cn(C2CC2)c2cc(N3CCN(Cc4cn(-c5ccc(C(C)=O)cc5)nn4)CC3)c(F)cc2c1=O
Ratio (Staphylococcus aureus [19]): 2 | MIC (Staphylococcus aureus [20]): 3.12 µg/mL (≈ 5.59 µM)

CCn1cc(C(=O)O)c(=O)c2cc(F)c(N3CCN(CC(=O)Nc4ccc(/C(C)=N/O)cc4)CC3)cc21
MIC (Klebsiella pneumoniae [21]): 0.08 µg/mL (≈ 0.157 µM)

Nc1ccc(-c2nnc(-c3cn(C4CC4)c4cc(C(=O)c5ncc[nH]5)c(F)cc4c3=O)o2)c(O)c1
MIC (Aspergillus fumigatus): 9.8 µg/mL (≈ 20.7 µM) | MIC (Aspergillus niger [22]): 9.8 µg/mL (≈ 20.7 µM) | MIC (Pseudomonas aeruginosa [13]): 0.2 µg/mL (≈ 0.423 µM) | MIC (Escherichia coli [16]): 0.2 µg/mL (≈ 0.423 µM)

O=C(O)c1cn(C2CC2)c2cc(N3CCN(Cc4nnc(-c5ccc(O)cc5)o4)CC3)c(F)cc2c1=O
MIC (Staphylococcus aureus [11]): 0.2 µg/mL (≈ 0.396 µM) | MIC (Escherichia coli [23]): ≤ 0.125 µg/mL | Ratio (Staphylococcus aureus [24]): >=4 | MIC (Staphylococcus aureus [25]): 0.125 µg/mL (≈ 0.247 µM) | Ratio (Staphylococcus aureus [18]): >=4

Clc1ccccc1C(c1ccccc1)(c1ccccc1)n1ccnc1 [CLOTRIMAZOLE]
MIC (Candida albicans): 1.28 µg/mL (≈ 3.71 µM) | MIC (Aspergillus niger [26]): 1.56 µg/mL (≈ 4.52 µM)

COc1cccc2c1C(=O)c1c(O)c3c(c(O)c1C2=O)C[C@@](O)(C(=O)CO)C[C@@H]3O[C@H]1C[C@H](N)[C@H](O)[C@H](C)O1 [DOXORUBICIN]
IC50 [27]: 259 nM | IC50 (HT-29): 259 nM | IC50 (WRL68): 259 nM

Cc1c(F)c(N2CCNC(C)C2)cc2c1c(=O)c(C(=O)O)cn2C1CC1 (centres undefined) [GREPAFLOXACIN]
MIC (Klebsiella pneumoniae [28]): 0.5 µg/mL (≈ 1.39 µM) | MIC (Staphylococcus aureus [29]): 0.5 µg/mL (≈ 1.39 µM) | MIC (Escherichia coli [30]): 0.5 µg/mL (≈ 1.39 µM)

CC(=O)NC[C@H]1CN(c2ccc(N3CCOCC3)c(F)c2)C(=O)O1 [LINEZOLID]
MIC (Streptococcus agalactiae): 1 µg/mL (≈ 2.96 µM) | MIC (Enterococcus): 1 µg/mL (≈ 2.96 µM) | MIC (Staphylococcus aureus [31]): 1 µg/mL (≈ 2.96 µM) | MIC (Staphylococcus aureus [32]): 1 µg/mL (≈ 2.96 µM) | MIC (Haemophilus influenzae): 1 µg/mL (≈ 2.96 µM)

CCn1cc(C(=O)O)c(=O)c2cc(F)c(N3CCNCC3)cc21 [NORFLOXACIN]
MIC (Staphylococcus aureus [33]): ≥ 4 µg/mL | MIC (Pseudomonas aeruginosa [34]): ≤ 0.125 µg/mL | MIC (Escherichia coli [23]): ≤ 0.125 µg/mL | MIC (Escherichia coli [35]): ≤ 0.125 µg/mL | MIC (Pseudomonas aeruginosa [36]): ≥ 4 µg/mL | MIC (Staphylococcus aureus [37]): ≥ 4 µg/mL | MIC (Klebsiella pneumoniae [38]): ≤ 0.125 µg/mL | MIC (Acinetobacter baumannii): ≥ 4 µg/mL | MIC (Staphylococcus aureus [39]): ≤ 0.125 µg/mL | MIC (Staphylococcus aureus [25]): ≤ 0.125 µg/mL | MIC (Klebsiella pneumoniae [21]): 0.5 µg/mL (≈ 1.57 µM)

CC/C(=C(\c1ccccc1)c1ccc(OCCN(C)C)cc1)c1ccccc1 [TAMOXIFEN]
GI50 (MDA-MB-231): 240 nM | GI50 (SiHa): 120 nM
